Assay results: the NIST ThermoML archive (doi:10.1016/j.fluid.2019.06.021)
Numbers after ± are expanded uncertainties.

Conditions: Crystal; DTA

With `COCCNc1ccc([N+](=O)[O-])cc1` [N-(2-methoxyethyl)-4-nitroaniline] as the compound, how does the Normal melting temperature read?
The Normal melting temperature was 85.8 ± 0.9 °C.

Which Normal melting temperature does the source give for `CCN(C(=O)N(CC)c1ccccc1)c1ccccc1` [1,3-diethyl-1,3-diphenylurea] here?
Its Normal melting temperature is 72.6 ± 0.9 °C.

With `CC(=O)OCCNc1ccc([N+](=O)[O-])cc1` [2-[(4-nitrophenyl)amino]ethanol 1-acetate] as the compound, how does the Normal melting temperature read?
The Normal melting temperature was 113.2 ± 0.9 °C.

For `O=[N+]([O-])c1ccccc1Nc1ccccc1` [2-nitrodiphenylamine], which Normal melting temperature is on record?
Its Normal melting temperature is 74.8 ± 0.9 °C.

With `c1ccc(Nc2ccccc2)cc1` [diphenylamine] as the compound, how does the Normal melting temperature read?
The Normal melting temperature was 52.5 ± 0.9 °C.
